The values that follow come from article PMC9657236, “Anti-Leukemic Activity of Brassica-Derived Bioactive Compounds in HL-60 Myeloid Leukemia Cells” (International Journal of Molecular Sciences, 2022).

Read-outs that look alike come from different tables or passages of the source.

Data set [1] in a line: MTT viability assay in macrophage-like differentiated HL-60 cells. Format: cell-based, human. Particulars: human, macrophage-like differentiated HL-60 cells (PMA), differentiated HL-60 cells, 48 h, MTT, mean ± SD. As to the method: (§1) In order to test the specificity of the compounds as potential anti-tumor/cytotoxic agents with no collateral negative effects upon non-proliferative cells, the series of compounds were also assayed in an in vitro model of human macrophage-like cells derived from the same HL-60 cell line. To obtain these differentiated macrophage-like cells, HL-60 human leukemia cells growing at an exponential rate in suspension were exposed to a dose of 10 ng/mL of phorbol myristate acetate (PMA) (Sigma-Aldrich, Merck, Análisis Vínicos SL, Tomelloso, Spain) for 24 h in 96-well plates at a cell density of 0.2·10^6 HL-60 cells/well at 37 °C and 5% CO2. Cells were then incubated in culture media without PMA for another 24 h in the same culture conditions. After differentiation and resting periods, differentiated cells were treated for 48 h with compound solutions at different concentrations. Finally, MTT assays were performed as previously explained to measure cell viability. All experiments were performed in triplicate and in three independent experiments.
For orientation: Formazan colour is commonly taken as a measure of viable cells.

Data set [2] deals with NRF2/KEAP1 signaling pathway. Description: RT-qPCR gene expression in undifferentiated HL-60 cells. Format: cell-based, human. Particulars: for expression levels of the NRF2-target genes HMOX, NQO1 and GSTA1 (in words): undifferentiated HL-60, RT-qPCR, dose-dependent. An excerpt:
Total RNA was extracted from HL-60 cells using the GenElute Mammalian Total RNA Miniprep kit (Sigma) following the manufacturer’s instructions. RNA was eluted in RNAse-free water and checked for concentration and purity using the Nanodrop spectrophotometer system (ND-100 3.3. Nanodrop Technologies, Thermo Scientific, Madrid, Spain). Only samples with a ratio of Abs260/Abs280 between 1.8 and 2.1 were used for gene expression assays. cDNA was generated using a high-capacity RNA-to-cDNA kit (Thermo Fisher Scientific, Madrid, Spain) according to the manufacturer’s protocol. PCR amplification was carried out with PowerUp SYBR Green PCR Master Mix (Applied Biosystems, Waltham, MA, USA) using a Fast 7500 Real-Time instrument (Applied Biosystems, Waltham, MA, USA). The obtained data were analyzed using the 7500 SDS software (Applied Biosystems, Waltham, MA, USA). Actin beta (ACTB) and Glyceraldehyde 3-phosphate dehydrogenase (GAPDH) were used as reference genes. Both were considered suitable reference genes for gene expression normalization based on geNorm and/or Bestkeeper stability analysis. The gene-stability measures were performed using the RefFinder tool. Relative expression was calculated using the 2^−ΔΔCt method. All experiments were performed in triplicate and in three independent experiments.

Data set [3] concerns HL-60 cells. Briefly: MTT viability assay in proliferative HL-60 cells. Format: cell-based, human. Particulars: for IC50: proliferative HL-60 cells, mean ± SD, n = 3; for IC50 / effect on HL-60 cell viability (in words): MTT; for cytotoxic effect (in words): after 24 h; for effect on HL-60 cell viability (in words): doses up to 50 µM, 24, 48 and 72 h. As to the method:
The human acute myeloid leukemia cell line HL-60 (ATCC® CCL-240™) was used to test the Brassica spp. phytochemicals. Maintenance of the cells was performed as previously described. Briefly, cells were grown in RPMI-1640 medium (Biowest) supplemented with 10% fetal bovine serum (FBS; Gibco, Thermo Fisher Scientific, Madrid, Spain) and 1% penicillin/streptomycin (Gibco, Thermo Fisher Scientific, Madrid, Spain), at 37 °C with 5% CO2 and 90% humidity. All in vitro assays were performed after passage number 5 and before passage number 20 with cells growing at an exponential ratio.
The anti-tumor activity of the compounds was evaluated by the MTT (3-(4,5-dimethylthiazol-2-yl)-2,5-diphenyltetrazolium bromide) viability assays as described previously. In brief, HL-60 cells were cultured at a concentration of 10^5 cells/mL (exponential growth rate) in 96-well plates containing 200 μL of cell culture medium and exposed to different doses of the tested compounds (0.5 μM, 1 μM, 5 μM, 10 μM, 25 μM, and 50 μM) for 24, 48, and 72 h. Then, MTT (Thermo Fisher) was added at a final concentration of 483 μM (0.2 mg/mL) and cells were incubated for 1 h at 37 °C and 5% CO2. Afterward, cells were lysed using an acidified isopropanol solubilization solution containing 0.04 M hydrochloric acid and 0.1% NP-40 detergent to release the formazan. Finally, the absorbance was measured at 550 nm using a SPECTROstar Nano (BMG Labtech, Germany) plate reader. The compound cytotoxicity was normalized to the control conditions (untreated with an equivalent dose of vehicle (DMSO) when applicable).

The subject of data set [4] is HL-60 cells. Also noted: method as in PMID 15135302. Particulars: apoptosis induction and cytodifferentiation; cited from earlier work.
Data set [5] relates to HL-60 differentiated cells. Description: MTT viability assay in macrophage-like differentiated HL-60 cells. Format: cell-based, human. As to the method:
as §1

The mark [6] stands for this setting: Homo sapiens, HL-60, higher dose (50 µM), 48 h, read-out: cell viability.

Usually viability stands for a read-out of living cells in per cent, often relative to untreated cells. The IC50 is the concentration that gives 50% inhibition. A low value points to inhibition by little substance. Turning to `O=C(/C=C/c1ccc(O)c(O)c1)O[C@@H]1C[C@](O)(C(=O)O)C[C@@H](O)[C@H]1O` [CQA, Chlorogenic acid], in data set [1], the viability at 48 h, 10 µM worked out at 114 ± 19.2%; the viability at 48 h, 25 µM was 114 ± 20.6%; the viability at 48 h, 50 µM was found to be 109 ± 11.8%. Besides, the “expression levels of the NRF2-target genes HMOX, NQO1 and GSTA1 (in words)” value (from here on “expression levels”) in data set [2] is recorded as “markedly induce”. Also, the viability at 25 µM in the data set on HL-60 cells [3] (Homo sapiens, HL-60, 25 µM treatment, 48 and 72 h, read-out: cell viability) is under 50%. Moreover, in the data set on HL-60 cells [3] (setting [6]), the viability at 50 µM was found to be 13%. In the data set on HL-60 cells [3] (Homo sapiens, HL-60, higher dose (50 µM), 72 h, read-out: cell viability), the viability at 50 µM worked out at 11%. Moreover, the IC50 in the data set on HL-60 cells [3] (Homo sapiens, 48 h treatment) stood at 17.4 ± 0.7 µM. Also, the IC50 in the data set on HL-60 cells [3] (Homo sapiens, 72 h treatment) came out at 28.9 ± 0.7 µM.

On to `OC[C@H]1O[C@@H](Oc2cc3c(O)cc(O)cc3[o+]c2-c2ccc(O)c(O)c2)[C@H](O)[C@@H](O)[C@@H]1O` [C3G, cyanidin-3-glucoside chloride], for which, in data set [1], the viability at 48 h, 10 µM turned out to be 114 ± 24.4%; the viability at 48 h, 25 µM worked out at 108 ± 7.4%; the viability at 48 h, 50 µM was 107 ± 12.8%. Also, the “concentrations needed to inhibit the proliferative capacity of HL-60 cells” value with HL-60 cells [4] is over 100 µM. In addition, in data set [2], the “expression levels” value was “markedly induce”. Further, the cell viability result in the data set with HL-60 cells [3] (10–50 µM doses, 24 h) is recorded as “around 40%”. In addition, in the data set on HL-60 cells [3] (25 and 50 µM, 48 h and 72 h), the cell viability result is recorded as “below 20%”. Also, the IC50 in the data set with HL-60 cells [3] (Homo sapiens, 48 h treatment) stood at 7 ± 1 µM. For the same compound, half-maximal inhibition in the data set with HL-60 cells [3] (Homo sapiens, 72 h treatment) (IC50) required 21.9 ± 0.3 µM.

For `c1ccc2c(Cc3c[nH]c4ccccc34)c[nH]c2c1` [DIM, 3,3′-Diindolmethane], in data set [1], the viability at 48 h, 10 µM was determined as 102 ± 22.7%; the viability at 48 h, 25 µM is 118 ± 27.2%; the viability at 48 h, 50 µM was 105 ± 13.5%. Also, the viability at 50 µM in the data set with HL-60 cells [3] (setting [6]) worked out at 25%. Besides, the “cytotoxic effect (in words)” value in the data set with HL-60 cells [3] is recorded as “mild but significant cytotoxic effect”. The compound further came in with a maximum cytotoxicity in the data set on HL-60 cells [3] (higher dose (50 µM), 48 h) of 75%.

Consider `OCc1c[nH]c2ccccc12` [I3C, indole-3-carbinol], for which, in data set [1], the viability at 48 h, 10 µM came to 93.6 ± 8%; the viability at 48 h, 25 µM turned out to be 99.5 ± 5.4%; the viability at 48 h, 50 µM was 95.1 ± 10.4%. The viability at 50 µM with HL-60 cells [3] (Homo sapiens, HL-60, maximum dose (50 µM), 24 h, read-out: cell viability) amounted to 38%. In the data set on HL-60 cells [3], the “cytotoxic effect (in words)” value is listed as “mild but significant cytotoxic effect”.

For the compound `COc1cc(/C=C/C(=O)O)cc(OC)c1O` [SIA, sinapic acid], the “effect on HL-60 cell viability (in words)” value in the data set with HL-60 cells [3] is recorded as “did not have any effect whatsoever”.

Regarding `O=S(=O)(O)O/N=C(/Cc1c[nH]c2ccccc12)S[C@@H]1O[C@H](CO)[C@@H](O)[C@H](O)[C@H]1O` [GBS, glucobrassicin], in the data set with HL-60 cells [3], the “effect on HL-60 cell viability (in words)” value was “did not show any effect”.

Turning to `C[S+]([O-])CCCCN=C=S` (stereo not drawn) [SFN, sulforaphane], the “cytotoxicity in differentiated cells (in words)” value in data set [5] (10 µM) is listed as “did not cause significant cytotoxicity”. In data set [5] (concentrations higher than 10 µM, 48 h), the “cytotoxic effect in differentiated HL-60 cells (in words)” value is “significant cytotoxic effect”. Besides, in data set [1], the viability at 48 h, 10 µM turned out to be 98.2 ± 12.1%; the viability at 48 h, 25 µM was determined as 87.6 ± 6.8%; the viability at 48 h, 50 µM came to 70 ± 17.5%. In data set [2] (HL-60 cells), the “induction of the NRF2/KEAP1 signaling pathway (in words)” value is recorded as “most potent NRF2 activator”. For the same compound, the “expression levels” value in data set [2] was “markedly induce”. Moreover, the cytotoxicity levels entry with HL-60 cells [3] (25 µM and 50 µM, all time points (24, 48 and 72 h)) was “above 95%”. Also, the IC50 with HL-60 cells [3] (Homo sapiens, HL-60, 48 h, 48 h treatment) was 6 µM. The compound also yielded an IC50 with HL-60 cells [3] (Homo sapiens, HL-60, 72 h, 72 h treatment) of 11.3 ± 0.5 µM. Moreover, in the data set with HL-60 cells [3] (Homo sapiens, HL-60, 10 µM dose, all time points (24, 48, 72 h)), the viability at 10 µM is under 50%. This compound also yielded an IC50 with HL-60 cells [3] (48 h treatment) of 5.9 ± 0.3 µM.

In the case of `CSCCCCC(=NOS(=O)(=O)O)SC1OC(CO)C(O)C(O)C1O` (stereo not drawn) [GER, glucoerucin], the “effect on HL-60 cell viability (in words)” value in the data set on HL-60 cells [3] was “did not show any significant effects”.

With `C[S+]([O-])CCCC/C(=N\OS(=O)(=O)O)S[C@@H]1O[C@H](CO)[C@@H](O)[C@H](O)[C@H]1O` (stereo partly drawn) [GRA, glucoraphanin], in the data set with HL-60 cells [3], the “effect on HL-60 cell viability (in words)” value is recorded as “did not show any significant effects”.
